The source of these data is paper PMC6249549, “Bioactive metabolites from the leaves of Withania adpressa” (Pharmaceutical Biology, 2018).

Molecules are shown by their SMILES. “Also recorded” adds a separate entry of the source.

The subject of assay [1] is MM-CSCs (multiple myeloma cancer stem cells). Description: Antiproliferative activity, MTT assay. The format is cell-based, Human. The settings on record: 72 h; for IC50: Homo sapiens, mean ± SD of three measurements. The procedure:
(§1) Human multiple myeloma cancer stem cells (MM-CSCs) derived from the bone marrow of a MM patient, were obtained from Celprogen (Torrance, CA). MM-CSCs were used between passages 4 and 12 for experiments. The tumour plasma cells RPMI 8226 were obtained from LGC standards (Middlesex, United Kingdom). RPMI 8226 cells were used between passages 10 and 25 for experiments. The two cell lines were cultured at 37 °C and 5% CO2 atmosphere in RPMI 1640 culture medium supplemented with 10% foetal bovine serum (Biowest), 100 IU/mL penicillin and 250 μg/mL streptomycin. MTT and XTT assays were used to evaluate the antiproliferative activity of the pure compounds in MM-CSCs and RPMI 8226 cells, respectively (Issa and Cuendet [2017]). MM-CSCs were seeded in 96 well plates at a density of 5,000 cells per well and allowed to adhere for 24 h, whereas RPMI 8226 cells were plated at a density of 15,000 cells per well and treated immediately. MM-CSCs and RPMI 8226 cells were treated with increasing concentrations (0–20 µM) of compounds for 72 h. Twenty microlitres of MTT solution (5 mg/mL) or 50 μL XTT solution (1 mg/mL) were added in each well and incubated for 2 h (MTT assay) or 4 h (XTT assay). The media and MTT solution were aspirated and the cells containing formazan were solubilized in 100 µL DMSO. Absorbance was measured at 590 nm (MTT assay) or 450 nm (XTT assay). The percentage of cell viability was calculated as the absorbance of each well was divided by that of the vehicle control wells (0.5% DMSO in culture medium) and multiplied by 100. IC50 values were calculated using GraphPad Prism. Each compound was tested in triplicate and three independent experiments were performed using bortezomib as positive control.

In assay [2] the test system is RPMI 8226 cells. Description: Antiproliferative activity, XTT assay. Conditions: for IC50: Homo sapiens, RPMI-8226, 72 h, mean ± SD of three measurements; for Antiproliferative activity against RPMI 8226 (in words): 72 h. Format: cell-based. The procedure: as §1
In assay [3] the test system is NF-κB. Description: NF-κB inhibition assay, TNF-α stimulated HEK293/NF-κB-luc luciferase reporter cells. The format is cell-based. Conditions: TNF-α (20 ng/mL) induced, mean ± SD of three independent measurements. Here is the method:
NF-κB inhibitory activity was assessed using a HEK293/NF-κB-luc cell line (Panomics, Fremont, CA) as previously described (Ndongo et al. [2017]). Briefly, cells were cultured at 37 °C and 5% CO2 atmosphere in high glucose Dulbecco's modified Eagle's medium (ThermoFisher Scientific) with 100 IU/mL penicillin, 100 μg/mL streptomycin, 100 μg/mL hygromycin B (ThermoFisher Scientific) and 10% foetal bovine serum (Biowest, Nuaillé, France). The day before the assay, cells were treated for 1 h with 2.5 μM of Cell Tracker Green CMFDA (ThermoFisher Scientific), a fluorescent dye used to quantify cell viability, in FBS-free medium. Then, 10^4 cells/well were seeded in 96-well plates and incubated overnight. After that, cells were treated with either the vehicle control (0.5% DMSO in culture medium) or the samples and stimulated for 5 h with 20 ng/mL of TNF-α (Sigma-Aldrich, Saint Louis, MO). Finally, cells were lysed with reporter lysis buffer (Promega, Madison, WI) and fluorescence signals were read on a Cytation 3 multimode plate reader (Biotek, Winooski, VT). Luciferase assay reagent (Promega) was then added to each well using the auto-injector and the luminescence signals were read. The fluorescence signal was used to normalize the luminescence signal for each well to limit the influence of cell toxicity in luminescence signal intensity. Relative NF-κB activity was quantified by comparing the normalized luminescence signal of vehicle treated nonstimulated cells with the one of vehicle treated stimulated cells. All pure compounds were first screened at 20 μM. Compounds able to inhibit more than 50% of TNF-α induced NF-κB activity at this concentration were considered as active and were selected for calculation of their IC50. Nonlinear regression (with sigmoidal dose response) was used to calculate the IC50 values using GraphPad Prism. Each compound was tested in duplicate and three independent experiments were performed using parthenolide as positive control.

The nature of assay [4]: NO radical scavenging assay. Conditions: pure compound.
The nature of assay [5]: DPPH radical scavenging assay. Conditions: pure compound. The procedure:
The DPPH radical scavenging activity was carried out as described previously (Şahin et al. [2004]) with slight modifications. Samples (1–200 µg/mL) were added to a 60-μM methanol solution of DPPH. The absorbance of the solution was measured at 517 nm after a 30-min incubation period at room temperature in the dark.

For `CC(C)C[C@H](NC(=O)[C@H](Cc1ccccc1)NC(=O)c1cnccn1)B(O)O` [Bortezomib, bortezomib, reference compound], the figures for the IC50 in assay [1] and in assay [2] were 0.0091 ± 0.0014 µM and 0.0033 ± 0.0008 µM, respectively.

On to `CC1=C(C)C(=O)O[C@@H]([C@](C)(O)[C@]2(O)CC[C@@]3(O)[C@@H]4CC=C5CC=CC(=O)[C@]5(C)[C@H]4CC[C@]23C)C1` [Compound 1, withanolide F], for which, in assay [1], the “Antiproliferative activity against MM-CSCs (in words)” value is “low µM antiproliferative activity; also recorded: showed activity” and the concentration for half-maximal inhibition (IC50) came to 5.3 ± 0.9 µM. Besides, the IC50 in assay [3] (Homo sapiens, HEK293, 5 h) was 1.2 ± 0.2 µM. Besides, in assay [2], the “Antiproliferative activity against RPMI 8226 (in words)” value is reported as “low µM antiproliferative activity; also recorded: showed activity” and the IC50 turned out to be 0.1 ± 0.01 µM.

`CC1=C(CO)C(=O)O[C@@H]([C@@H](C)[C@H]2CC[C@H]3[C@@H]4C[C@H]5O[C@]56[C@@H](O)C=CC(=O)[C@]6(C)[C@H]4CC[C@]23C)C1` [Compound 2, withaferin A]: the “Antiproliferative activity against MM-CSCs (in words)” value in assay [1] is reported as “low µM antiproliferative activity”. Also, the IC50 came out at 0.33 ± 0.02 µM in assay [1]; 0.047 µM in assay [3] (Homo sapiens, HEK293, 5 h); 0.05 ± 0.01 µM in assay [3] (5 h); 0.17 ± 0.03 µM in assay [2]. In addition, the “Antiproliferative activity against RPMI 8226 (in words)” value in assay [2] was “low µM antiproliferative activity”.

Take `CC1=C(C)C(=O)OC(C(C)(O)C2(O)CCC3(O)C4CC=C5CC(OC6OC(CO)C(O)C(O)C6O)CC(=O)C5(C)C4CCC32C)C1` (stereo not shown) [Compound 3, coagulin L]: the IC50 in assay [1] is > 20 µM; in assay [3] (Homo sapiens, HEK293, 5 h) it was > 20 µM; in assay [2], 3.6 ± 0.6 µM.

For the compound `C[C@@H]1O[C@@H](OC[C@H]2O[C@@H](Oc3c(-c4ccc(O)cc4)oc4cc(O)cc(O)c4c3=O)[C@H](O)[C@@H](O)[C@@H]2O)[C@H](O)[C@H](O)[C@H]1O` [Compound 4, nicotiflorin], the IC50 was > 20 µM in assay [1]; 41.3 µM in assay [4]; > 20 µM in assay [3] (Homo sapiens, HEK293, 5 h); 35.3 µM in assay [5]; 7.1 ± 0.1 µM in assay [2].

For the compound `CC1=C(C)C(=O)OC(C(C)(O)C2(O)CCC3(O)C4CC=C5CC(OC6OC(CO)C(OC7OC(C)C(O)C(O)C7O)C(O)C6O)CC(=O)C5(C)C4CCC32C)C1` [Compound 5, (14R,17S,20R,22R)-3β-O-(α-L-rhamnopyranosyl-(1→4)-β-D-glucopyranosyl)-14,17,20-trihydroxy-1-oxo-witha-5,24-dienolide], the IC50 in assay [1] was > 20 µM; in assay [3] (Homo sapiens, HEK293, 5 h), > 20 µM; in assay [2] it was 3.2 ± 0.4 µM.

As to `C=C1C(=O)O[C@H]2[C@H]1CC/C(C)=C/CC[C@@]1(C)O[C@@H]21` [Parthenolide, parthenolide, reference compound], the IC50 in assay [3] (Homo sapiens, HEK293, 5 h) stood at 0.53 ± 0.01 µM.
